Experimental data as given in patent publication US20240041042A1, “1-(PYRIDYL)-5-AZINYLPYRAZOLE DERIVATIVES, AND THEIR USE FOR CONTROL OF UNDESIRED PLANT GROWTH” (Bayer Aktiengesellschaft, priority 2020, published 2024).
Read-outs that look alike come from different tables or passages of the source.

Assays:
Type in all cases: in vivo
[1] = tested on: Abutilon theophrasti (ABUTH); assay: Post-emergence herbicidal action against ABUTH; conditions: visual rating about 3 weeks after treatment vs untreated controls (100% = plants have died, 0% = like control plants)
How it was run: (§1)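 Post-emergence greenhouse spray, one-leaf stage, 600 l/ha water plus 0.5% additive; WP or EC formulations; application rates 320 g/ha or lower. Visual % damage vs untreated controls at ~3 weeks.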

[2] = tested on: Alopecurus myosuroides (ALOMY); assay: Post-emergence herbicidal action against ALOMY; conditions: visual rating about 3 weeks after treatment vs untreated controls (100% = plants have died, 0% = like control plants)
How it was run: as §1

[3] = tested on: Amaranthus retroflexus (AMARE); assay: Post-emergence herbicidal action against AMARE
How it was run: as §1

[4] = tested on: Avena fatua (AVEFA); assay: Post-emergence herbicidal action against AVEFA; conditions: 320 g/ha, visual rating about 3 weeks after treatment
How it was run: as §1

[5] = tested on: Digitaria sanguinalis (DIGSA); assay: Post-emergence herbicidal action against DIGSA; conditions: visual rating about 3 weeks after treatment
How it was run: as §1

[6] = tested on: Echinochloa crus-galli (ECHCG); assay: Post-emergence herbicidal action against ECHCG
How it was run: as §1

[7] = tested on: Matricaria inodora (MATIN); assay: Post-emergence herbicidal action against MATIN
How it was run: as §1

[8] = tested on: Pharbitis purpurea (PHBPU); assay: Post-emergence herbicidal action against PHBPU
How it was run: as §1

[9] = tested on: Polygonum convolvulus (POLCO); assay: Post-emergence herbicidal action against POLCO
How it was run: as §1

[10] = tested on: Setaria viridis (SETVI); assay: Post-emergence herbicidal action against SETVI
How it was run: as §1

[11] = tested on: Verconica persica (VERPE); assay: Post-emergence herbicidal action against VERPE
How it was run: as §1

[12] = tested on: Viola tricolor (VIOTR); assay: Post-emergence herbicidal action against VIOTR
How it was run: as §1

[13] = tested on: Oryza sativa (ORYSA); conditions: crop plant compatibility
How it was run: (§2)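 Greenhouse crops in sandy loam sprayed post-emergence at the one-leaf stage, 2–3 weeks after sowing, with WP or EC formulations in water plus 0.5% additive at 600 l/ha. Damage rated visually about 3 weeks later versus untreated controls (0% = like control, 100% = dead); suffixes a–c denote different doses.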

[14] = tested on: Triticum aestivum (TRZAS); conditions: crop plant compatibility, 20 g/ha, effect vs untreated controls
How it was run: as §2

[15] = tested on: Zea mays (ZEAMX); conditions: for Post-emergence action against ZEAMX in % (crop plant compatibility): 20 g/ha, effect in comparison to untreated controls; for Post-emergence action against ZEAMX in %: crop plant compatibility, effect vs untreated controls
How it was run: as §2

[16] = tested on: Lolium rigidum (LOLRI); assay: Post-emergence herbicidal action against LOLRI; conditions: dosage 320 g/ha
How it was run: as §1

[17] = 80 g/ha, visual rating about 3 weeks after treatment vs untreated controls (100% = plants have died, 0% = like control plants)
[18] = 320 g/ha, visual rating about 3 weeks after treatment
[19] = 20 g/ha, effect vs untreated controls

Row | Post-emergence action against ORYSA in % [13, 19] [%] | Post-emergence action against TRZAS in % [14] [%] | Post-emergence action against ZEAMX in % (crop plant compatibility) [15] [%] | SMILES | Post-emergence action against ABUTH in % ([1]; 80 g/ha) [%] | Post-emergence action against ABUTH in % ([1]; 320 g/ha) [%] | Post-emergence action against ALOMY in % ([2]; 320 g/ha) [%] | Post-emergence action against AMARE in % [3, 17] [%] | Post-emergence action against AMARE in % [3, 18] [%] | Post-emergence action against AVEFA in % [4] [%] | Post-emergence action against DIGSA in % ([5]; 80 g/ha) [%] | Post-emergence action against DIGSA in % ([5]; 320 g/ha) [%] | Post-emergence action against ECHCG in % ([6]; dosage 80 g/ha) [%] | Post-emergence action against ECHCG in % ([6]; dosage 320 g/ha) [%] | Post-emergence action against MATIN in % ([7]; dosage 80 g/ha) [%] | Post-emergence action against MATIN in % ([7]; dosage 320 g/ha) [%] | Post-emergence action against PHBPU in % ([8]; dosage 80 g/ha) [%] | Post-emergence action against PHBPU in % ([8]; dosage 320 g/ha) [%] | Post-emergence action against POLCO in % ([9]; dosage 320 g/ha) [%] | Post-emergence action against SETVI in % ([10]; dosage 320 g/ha) [%] | Post-emergence action against VERPE in % ([11]; 320 g/ha, VERPE) [%] | other results
1 | 10 | 10 | 10 | Cc1cccnc1-n1nc(OCC(=O)O)c(Cl)c1-c1cncc(F)c1 [Example I-182] | 80 | 80 | 80 | 80 | 90 | 90 | 90 | 100 | 90 | 90 | 80 | 90 | 90 | 90 | 90 | 80 | 90 | Post-emergence action against POLCO in % ([9]; dosage 80 g/ha): 80%; Post-emergence action against SETVI in % ([10]; dosage 80 g/ha): 80%; Post-emergence action against VERPE in % ([11]; dosage 80 g/ha): 80%; Post-emergence action against VIOTR in % ([12]; 80 g/ha): 80%; Post-emergence action against VIOTR in % ([12]; 320 g/ha): 90%; Post-emergence action against ZEAMX in % ([15]; 80 g/ha): 20%
2 | 0 | 20 | 0 | COC(=O)COc1nn(-c2ncccc2F)c(-c2ccnc(F)c2)c1Br [Example I-130] | 80 | 90 | 90 | 80 | 90 | 90 | 80 | 90 |  | 90 |  | 80 |  | 80 | 80 |  | 80 | Post-emergence action against LOLRI in % [16]: 90%; Post-emergence action against VERPE in % ([11]; dosage 80 g/ha): 80%; Post-emergence action against VIOTR in % ([12]; 80 g/ha): 90%; Post-emergence action against VIOTR in % ([12]; 320 g/ha): 90%; Post-emergence action against ZEAMX in % ([15]; 80 g/ha): 0%; Post-emergence action against ZEAMX in % ([15]; 320 g/ha): 20%
3 | 10 | 20 | 10 | CCOC(=O)COc1nn(-c2ccncc2F)c(-c2ccc(F)nc2)c1Br [III-29] |  | 80 | 90 |  |  |  |  | 90 | 80 | 80 | 80 | 90 | 80 | 90 | 80 | 90 | 80 | Post-emergence action against LOLRI in % [16]: 80%; Post-emergence action against ORYSA in % ([13]; 80 g/ha, effect in comparison to untreated controls): 20%
4 | 0 | 20 | 20 | CCOC(=O)COc1nn(-c2ncccc2C)c(-c2cncc(F)c2)c1Cl [Example I-181] | 80 | 80 | 90 | 80 | 90 | 90 | 90 | 90 | 90 | 100 | 80 | 80 | 90 | 100 | 80 | 90 | 90 | Post-emergence action against ALOMY in % ([2]; 80 g/ha): 80%; Post-emergence action against LOLRI in % [16]: 80%; Post-emergence action against POLCO in % ([9]; dosage 80 g/ha): 80%; Post-emergence action against SETVI in % ([10]; dosage 80 g/ha): 80%; Post-emergence action against VERPE in % ([11]; dosage 80 g/ha): 90%; Post-emergence action against VIOTR in % ([12]; 80 g/ha): 90%; Post-emergence action against VIOTR in % ([12]; 320 g/ha): 90%
